What was measured:
Assay type in all cases: biochemical
Human recombinant HDAC4 = Human recombinant HDAC4 (Homo sapiens (Human), UniProt P56524); test: Test 2: HDAC4 assay (fluorogenic substrate, 5 μM acetyl-Gly-Ala-Lys(ε-trifluoroacetyl)-AMC); settings: Test 2 (values without asterisk)
Method in brief: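 After the reaction, bovine trypsin (300 nM solution) was added for 15 min at RT to develop the signal; fluorescence read at 360/450 nm. No-enzyme background subtracted; IC50 from 4-parameter logistic fit of dose-response curves.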

[1] = target: Human recombinant full length HDAC1 (Homo sapiens (Human), UniProt Q13547); test: Test 3: HDAC1 assay; settings: substrate 5 μM acetyl-Gly-Ala-Lys(acetyl)-AMC
Sequence of Human recombinant full length HDAC1 (Q13547 whole entry): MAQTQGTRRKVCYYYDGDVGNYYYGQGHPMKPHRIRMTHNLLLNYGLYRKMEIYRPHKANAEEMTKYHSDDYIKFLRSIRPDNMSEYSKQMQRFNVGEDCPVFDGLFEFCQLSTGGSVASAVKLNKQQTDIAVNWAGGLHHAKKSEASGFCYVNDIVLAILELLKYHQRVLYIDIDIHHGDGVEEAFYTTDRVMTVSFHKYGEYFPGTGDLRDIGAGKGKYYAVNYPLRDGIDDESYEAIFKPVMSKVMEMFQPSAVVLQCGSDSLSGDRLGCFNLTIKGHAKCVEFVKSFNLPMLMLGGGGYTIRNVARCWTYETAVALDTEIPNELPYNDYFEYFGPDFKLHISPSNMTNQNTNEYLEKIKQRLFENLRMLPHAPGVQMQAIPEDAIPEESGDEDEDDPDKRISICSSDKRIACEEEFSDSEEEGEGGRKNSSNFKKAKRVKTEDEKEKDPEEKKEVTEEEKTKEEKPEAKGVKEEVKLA
Method in brief: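 Baculovirus-expressed full-length human HDAC1 with 5 μM acetyl-Gly-Ala-Lys(acetyl)-AMC substrate, developed with trypsin 15 min at room temperature.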

[2] = target: Human recombinant full length HDAC6 (Homo sapiens (Human), UniProt Q9UBN7); test: Test 4: HDAC6 assay; settings: Test 4; substrate 5 μM acetyl-Gly-Ala-Lys(acetyl)-AMC
Sequence of Human recombinant full length HDAC6 (Q9UBN7 whole entry): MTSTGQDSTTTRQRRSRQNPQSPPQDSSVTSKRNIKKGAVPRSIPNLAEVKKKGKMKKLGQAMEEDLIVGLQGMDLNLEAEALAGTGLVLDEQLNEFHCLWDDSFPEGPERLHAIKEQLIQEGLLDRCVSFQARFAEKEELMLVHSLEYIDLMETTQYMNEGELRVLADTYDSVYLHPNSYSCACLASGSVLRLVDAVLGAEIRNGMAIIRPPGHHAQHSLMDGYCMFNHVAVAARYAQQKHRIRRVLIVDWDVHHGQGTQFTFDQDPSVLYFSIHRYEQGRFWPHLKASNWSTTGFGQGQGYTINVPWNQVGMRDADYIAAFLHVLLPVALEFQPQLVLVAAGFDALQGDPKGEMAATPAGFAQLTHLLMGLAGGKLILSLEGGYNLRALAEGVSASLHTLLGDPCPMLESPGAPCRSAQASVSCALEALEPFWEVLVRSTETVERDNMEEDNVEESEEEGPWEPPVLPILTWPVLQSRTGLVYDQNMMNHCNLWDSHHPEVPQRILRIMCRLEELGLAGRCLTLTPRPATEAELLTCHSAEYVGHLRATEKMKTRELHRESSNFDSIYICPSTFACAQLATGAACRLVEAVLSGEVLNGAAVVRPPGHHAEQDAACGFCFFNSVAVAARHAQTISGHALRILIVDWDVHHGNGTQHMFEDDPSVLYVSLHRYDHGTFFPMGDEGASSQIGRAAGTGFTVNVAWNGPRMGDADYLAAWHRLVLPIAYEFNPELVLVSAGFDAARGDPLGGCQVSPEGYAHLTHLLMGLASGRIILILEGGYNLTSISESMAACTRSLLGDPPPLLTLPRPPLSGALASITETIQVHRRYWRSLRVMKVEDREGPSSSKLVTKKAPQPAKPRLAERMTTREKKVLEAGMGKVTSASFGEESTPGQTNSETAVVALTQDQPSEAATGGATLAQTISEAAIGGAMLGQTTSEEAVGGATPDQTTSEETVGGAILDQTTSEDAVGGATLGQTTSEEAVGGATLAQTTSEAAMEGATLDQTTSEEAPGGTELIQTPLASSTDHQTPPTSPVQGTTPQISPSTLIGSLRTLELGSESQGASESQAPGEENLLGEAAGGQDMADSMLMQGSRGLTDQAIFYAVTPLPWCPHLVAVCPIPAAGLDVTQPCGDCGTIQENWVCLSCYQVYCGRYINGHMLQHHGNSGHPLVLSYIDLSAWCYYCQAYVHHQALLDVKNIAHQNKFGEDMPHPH
Method in brief: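 Baculovirus-expressed full-length recombinant human HDAC6 with 5 μM acetyl-Gly-Ala-Lys(acetyl)-AMC substrate, developed with trypsin 15 min at room temperature.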

Sequence of Human recombinant HDAC4 (P56524 2-1084): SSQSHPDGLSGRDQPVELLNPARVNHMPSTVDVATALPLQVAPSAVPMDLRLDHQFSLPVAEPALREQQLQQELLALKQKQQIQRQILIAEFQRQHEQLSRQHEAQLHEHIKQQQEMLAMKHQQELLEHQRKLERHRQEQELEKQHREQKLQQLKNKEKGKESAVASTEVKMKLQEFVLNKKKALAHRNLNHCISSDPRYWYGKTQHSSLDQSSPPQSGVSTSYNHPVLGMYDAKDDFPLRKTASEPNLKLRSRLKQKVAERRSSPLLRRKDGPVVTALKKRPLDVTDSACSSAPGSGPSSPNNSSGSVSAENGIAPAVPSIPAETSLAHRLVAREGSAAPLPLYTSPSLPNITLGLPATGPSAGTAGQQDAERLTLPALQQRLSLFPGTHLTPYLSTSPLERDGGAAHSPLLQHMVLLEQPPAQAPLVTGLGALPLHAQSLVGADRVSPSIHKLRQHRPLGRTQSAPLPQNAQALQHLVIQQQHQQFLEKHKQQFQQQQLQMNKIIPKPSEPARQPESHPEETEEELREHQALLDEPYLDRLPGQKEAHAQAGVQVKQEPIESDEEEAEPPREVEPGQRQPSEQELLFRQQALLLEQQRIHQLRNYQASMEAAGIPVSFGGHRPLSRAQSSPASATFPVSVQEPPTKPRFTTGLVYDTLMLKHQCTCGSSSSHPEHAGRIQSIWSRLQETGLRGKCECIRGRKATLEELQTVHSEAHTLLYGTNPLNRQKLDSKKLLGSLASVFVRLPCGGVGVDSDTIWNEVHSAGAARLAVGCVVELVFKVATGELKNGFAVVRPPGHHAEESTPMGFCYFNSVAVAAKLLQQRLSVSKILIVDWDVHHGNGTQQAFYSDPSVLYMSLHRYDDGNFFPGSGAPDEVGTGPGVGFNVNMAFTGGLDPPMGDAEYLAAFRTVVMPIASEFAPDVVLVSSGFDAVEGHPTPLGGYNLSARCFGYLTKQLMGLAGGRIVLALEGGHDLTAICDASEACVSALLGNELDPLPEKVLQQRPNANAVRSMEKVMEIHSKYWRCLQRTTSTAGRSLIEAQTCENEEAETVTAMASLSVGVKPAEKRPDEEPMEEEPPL

SMILES | IC50 (Human recombinant HDAC4) | IC50 [1] | IC50 [2]
O=C(N[C@@H]1CCNC1)c1ccc(-c2noc(C(F)(F)F)n2)cc1F [Example 95, (R)-2-fluoro-N-(pyyrrolidin-3-yl)-4-(5-(trifluoromethyl)-1,2,4-oxadiazol-3-yl)benzamide] | 0.16 µM | > 10 µM | 6.9 µM
CN(C)CCNS(=O)(=O)c1ccc(-c2noc(C(F)(F)F)n2)cc1 [Example 98, N-(2-(dimethylamino)ethyl)-4-(5-(trifluoromethyl)-1,2,4-oxadiazol-3-yl)benzenesulfonamide] | 0.36 µM | > 10 µM | 6.4 µM
CN(C)CCN(C)S(=O)(=O)c1ccc(-c2noc(C(F)(F)F)n2)cc1 [Example 99, N-(2-(dimethylamino)ethyl)-N-methyl-4-(5-(trifluoromethyl)-1,2,4-oxadiazol-3-yl)benzenesulfonamide] | 1.35 µM | > 10 µM | 9.9 µM
O=S(=O)(N[C@@H]1CCNC1)c1ccc(-c2noc(C(F)(F)F)n2)cc1 [Example 102, (R)—N-(pyrrolidin-3-yl)-4-(5-(trifluoromethyl)-1,2,4-oxadiazol-3-yl)benzenesulfonamide] | 3.2 µM | > 10 µM | > 10 µM
Cc1ccccc1NS(=O)(=O)c1ccc(-c2noc(C(F)(F)F)n2)cc1 [Example 103, N-o-tolyl-4-(5-trifluoromethyl-[1,2,4]oxadiazol-3-yl)-benzenesulfonamide] | 0.08 µM | > 10 µM | 0.7 µM
CN(C)CCCN(C)S(=O)(=O)c1ccc(-c2noc(C(F)(F)F)n2)cc1 [Example 112, N-(3-(dimethylamino)propyl)-N-methyl-4-(5-(trifluoromethyl)-1,2,4-oxadiazol-3-yl)benzenesulfonamide] | 0.82 µM | > 10 µM | 9.1 µM

The next lines start with the values.

IC50 (Human recombinant HDAC4) | IC50 [1] | IC50 [2] | SMILES
0.84 µM | > 10 µM | 0.77 µM | O=S(=O)(Nc1ccccc1Cl)c1ccc(-c2noc(C(F)(F)F)n2)cc1 [Example 104, N-(2-chlorophenyl)-4-(5-(trifluoromethyl)-1,2,4-oxadiazol-3-yl)benzenesulfonamide]
0.27 µM | 3.6 µM | 0.47 µM | Cc1cccc(NS(=O)(=O)c2ccc(-c3noc(C(F)(F)F)n3)cc2)c1 [Example 105, N-m-tolyl-4-(5-(trifluoromethyl)-1,2,4-oxadiazol-3-yl)benzenesulfonamide]
0.79 µM | 6.2 µM | 0.46 µM | O=S(=O)(Nc1cccc(Cl)c1)c1ccc(-c2noc(C(F)(F)F)n2)cc1 [Example 107, N-(3-chlorophenyl)-4-(5-(trifluoromethyl)-1,2,4-oxadiazol-3-yl)benzenesulfonamide]
0.093 µM | 5 µM | 0.74 µM | Cc1ccc(NS(=O)(=O)c2ccc(-c3noc(C(F)(F)F)n3)cc2)cc1 [Example 108, N-p-tolyl-4-(5-(trifluoromethyl)-1,2,4-oxadiazol-3-yl)benzenesulfonamide]
0.097 µM | > 10 µM | 0.44 µM | O=S(=O)(Nc1ccc(F)cc1)c1ccc(-c2noc(C(F)(F)F)n2)cc1 [Example 109, N-(4-fluorophenyl)-4-(5-(trifluoromethyl)-1,2,4-oxadiazol-3-yl)benzenesulfonamide]
0.2 µM | > 10 µM | 2 µM | O=S(=O)(Nc1ccc(Cl)cc1)c1ccc(-c2noc(C(F)(F)F)n2)cc1 [Example 110, N-(4-chlorophenyl)-4-(5-(trifluoromethyl)-1,2,4-oxadiazol-3-yl)benzenesulfonamide]
0.29 µM | > 10 µM | 0.58 µM | O=S(=O)(Nc1ccccc1F)c1ccc(-c2noc(C(F)(F)F)n2)cc1 [Example 111, N-(2-fluorophenyl)-4-(5-(trifluoromethyl)-1,2,4-oxadiazol-3-yl)benzenesulfonamide]
